# Experimental data taken from patent US6562841B1, “Methods and compositions for repelling arthropods” (The United States of America as represented by the …, priority 2000, dated 2003).
# Read-outs that look alike come from different tables or passages of the source.
# Columns and labels:
# [1] = test system: Aedes aegypti (Linnaeus); test: Repellent bioassay on human skin, K & D modules, biting frequency of Aedes aegypti; format: in vivo; details: for repellent activity, comparison in words: pair-wise comparison alpha=0.05
# [2] = test system: many species of blood-sucking arthropods; details: field and laboratory studies, literature, cited from earlier work
# [3] = test system: Aedes albopictus; test: Repellent bioassay on human skin, K & D modules, Aedes albopictus; format: in vivo
# [4] = test system: Anopheles stephensi; test: Repellent bioassay on human skin, K & D modules, Anopheles stephensi; format: in vivo
# [5] = test system: Phlebotomus papatasi; test: Repellent bioassay on human skin, K & D modules, Phlebotomus papatasi; format: in vivo
smiles,measurement,setting,value
"CC1CCCCN1C(=O)C1CC=CCC1 (racemic) [compound 220, 1-(3-cyclohexen-1-ylcarbonyl)-2-methylpiperidine, reference compound]",proportion biting value,"[1]; Ae. aegypti females on treated human skin, 4.95 μg/cm^2 skin, 2 min exposure",0.45
same,"repellent activity, comparison in words","[1]; Ae. aegypti, 4.95 μg/cm^2 skin",not significantly different from one another
same,effectiveness in reducing bites compared with deet,[2],more or as effective as the commonly used arthropod repellent deet
same,effectiveness in reducing bites compared with deet,[2]; listed as 220 racemate,more effective than deet
"C[C@H]1CCCCN1C(=O)[C@@H]1CC=CCC1 (single isomer, unassigned) [(1S,2′S)]",times more repellent than the other stereoisomers,"[1]; Ae. aegypti, 4.95 μg/cm^2 skin",2.8-3.1 times
same,times more effective in suppressing bites than the racemate,"[1]; Ae. aegypti, equal dose",2.5 times
same,times more effective in suppressing bites than the racemate,[3],4 times
same,"repellent effectiveness, comparison in words",[4],most effective in repelling bites
same,"repellent effectiveness, comparison in words",[5],most effective in repelling bites
"CC1CCCCN1C(=O)C1CC=CCC1 [(1R,2′R), 1-(3-cyclohexen-1-ylcarbonyl)-2-methylpiperidine]","repellent activity, comparison in words","[1]; Ae. aegypti, 4.95 μg/cm^2 skin, listed as (1R,2′R)-220",significantly less effective as a repellent
"CC1CCCCN1C(=O)C1CC=CCC1 [(1R,2′S), 1-(3-cyclohexen-1-ylcarbonyl)-2-methylpiperidine]",times more repellent than the other stereoisomers,"[1]; Ae. aegypti, 4.95 μg/cm^2 skin",1.6-1.8 times
same,"repellent effectiveness, comparison in words",[3],"more effective than the (1S,2′R) and (1R,2′R) stereoisomers"
"CC1CCCCN1C(=O)C1CC=CCC1 [(1S,2′R), 1-(3-cyclohexen-1-ylcarbonyl)-2-methylpiperidine]","repellent activity, comparison in words","[1]; Ae. aegypti, 4.95 μg/cm^2 skin",not significantly different from one another
